pIC50: −log10 of the molar value.

Holding throughout (type): cell-based
The test system of experiment [1] is T47D (PI3Kα H1047R mutant) cells. Description: Inhibition of pAKT formation, alphaLISA SureFire Ultra AKT 1/2/3 (pS473), T47D cells. Conditions: Homo sapiens, T47D; for pIC50: T47D (PI3Kα H1047R mutant) cells, inhibition of pAKT (pS473) formation, approximately one hour or 24 hours treatment, read-out: T47D pAKT (H1047R mutant) IC50. An outline of the steps:
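T47D cells (12,000/well) in HBSS were dosed with compound at 10 concentrations (10.4 μM top, 1:4 dilutions) for about 1 h or 24 h at 37 °C, then lysed. pS473 AKT was read by alphaLISA. Signals were normalized to alpelisib and DMSO controls, and IC50 came from a four-parameter fit.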
In general terms: In Alpha technology, singlet oxygen from a donor bead excites a nearby acceptor bead.

For experiment [2] the test system is unchanged. Description: CellTiter-Glo 2.0 luminescent cell viability assay, 72 hours, T47D cells. Conditions: Homo sapiens, T47D, 72 h; for pIC50: T47D (PI3Kα H1047R mutant) cells, CellTiter-Glo, approximately 72 hours, read-out: T47D (H1047R mutant) Viability IC50. An outline of the steps:
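Cells seeded at 1000 per well overnight were dosed with a 10-concentration, 1:4 series starting at 10 µM and incubated ~72 h at 37° C. Viability was read by CellTiter-Glo 2.0 luminescence after 30 min at room temperature. IC50 came from four-parameter fits of percent vehicle control.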
On the technique in general: Cellular ATP, detected with luciferase, serves as a proxy for viable cell number.

For experiment [3], the system named is SKBR3 (PI3Kα wild type) cells. As to the kind of experiment: Inhibition of pAKT formation, alphaLISA SureFire Ultra AKT 1/2/3 (pS473), SKBR3 cells. Conditions: Homo sapiens, SK-BR-3; Inhibition of pAKT in SKBR3 (PI3Kα wild type) cells; read-out: SKBR3 (WT) pAKT IC50 (nM) (H1047R mutant) IC50. The procedure: The ability of a compound of Formula (I) to inhibit the formation of pAKT was measured using alphaLISA Surefire Ultra AKT 1/2/3 (pS473) Assay Kit (#ALSU-PAKT-B50K) was obtained from Perkin Elmer (Waltham, MA).
To prepare assay plates for pAKT alphaLISA assays, cells were trypsinized, resuspended in fresh media, and viable cells were counted utilizing trypan blue exclusion. Prior to seeding, cells were washed with PBS and resuspended in HBSS (Gibco, #14025092). T47D (12,000/w), SKBR3(12,000/w), or MKN1(24,000/w) cells were seeded at 12 μl per well in a solid white flat bottom 384 cell culture plate (Perkin Elmer #6007680).
Immediately after seeding, cells were dosed using an Echo Liquid Handler (Beckman Coulter) with compounds at a […] starting concentration and serially diluted (1:4) for a total of 10 concentrations. […] Cells were incubated with the compounds (solubilized in DMSO) for approximately one hour or 24 hours at 37° C. After one hour (or 24 hours) of treatment, cells were lysed with 3 μl of the 5× lysis buffer (provided and incubated at room temperature for 15 min on a microtiter plate shaker). Once cells were sufficiently lysed, 7.5 μl of the acceptor bead mix (made using the manufacturers recommended dilutions) was added to each well and left on the microtiter plate shaker for 1 min prior to incubating plates at room temperature for one hour, in the absence of light. After one hour of incubation with the acceptor bead mix, 7.5 μl of the donor bead mix (made using the manufacturers recommended dilutions) was added to each well and left on the microtiter plate shaker for 1 min prior to incubating plates at room temperature overnight in the absence of light. Plates were then imaged the following day using a CLARIOstar microplate reader (BMG Labtech, Germany).
Percent of control values were calculated by subtracting the average signal from the positive control (alpelisib) treated wells from all treated wells (including DMSO control wells) and then divided by the average signal from the vehicle DMSO treated control wells. Percent of vehicle control values were plotted as log (inhibitor) vs. response-Variable slope (four parameters) for curve fitting and IC50 values were determined using XLfit.
Key: N.D. =not determined

The test system of experiment [4] is SKBR3 (PI3Kα wild type) cells. Description: CellTiter-Glo 2.0 luminescent cell viability assay, 72 hours, SKBR3 cells. Conditions: Homo sapiens, SK-BR-3, 72 h; for pIC50: SKBR3 (PI3Kα wild type) cells, CellTiter-Glo, approximately 72 hours, read-out: SKBR3 (WT) Viability IC50. Put shortly: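 Viability measured via CTG luminescence following roughly 72 hours of compound exposure at 37° C. Dosing used a 10 um starting concentration diluted 1:4 over 10 points; percent-of-vehicle data fitted with a variable-slope four-parameter model for IC50.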

The term pIC50 denotes the IC50 on a negative log10 scale, so that one unit is a factor of ten. In general, IC50 refers to the concentration that gives 50% inhibition. `Cc1cc([C@@H](C)Nc2cscc2C(=O)O)c2nc(N3CCC(F)(F)CC3)c(C#N)c(=O)n2c1` [Example 10-61, (R)-4-((1-(3-cyano-2-(4,4-difluoropiperidin-1-yl)-7-methyl-4-oxo-4H-pyrido[1,2-a]pyrimidin-9-yl)ethyl)amino)thiophene-3-carboxylic acid]: the negative logarithm of the IC50 (pIC50) in experiment [1] is 8.11; in experiment [2], 6.74; in experiment [4], under 5.00. Moreover, the IC50 in experiment [3] worked out at 3650 nM.

As for `Cc1cc([C@@H](C)Nc2ccc(Cl)nc2C(=O)O)c2nc(N3CCC(F)(F)CC3)c(C#N)c(=O)n2c1` [Example 10-67, (R)-6-chloro-3-((1-(3-cyano-2-(4,4-difluoropiperidin-1-yl)-7-methyl-4-oxo-4H-pyrido[1,2-a]pyrimidin-9-yl)ethyl)amino)picolinic acid], the pIC50 is 7.85 in experiment [1], 6.52 in experiment [2] and under 5.00 in experiment [4]. For the same compound, the IC50 in experiment [3] is over 10000 nM.

`Cc1cc([C@@H](C)Nc2ccc(Cl)cc2C(=O)O)c2nc(N3CCC(F)(F)CC3)c(C#N)c(=O)n2c1` [Example 10-64, (R)-5-chloro-2-((1-(3-cyano-2-(4,4-difluoropiperidin-1-yl)-7-methyl-4-oxo-4H-pyrido[1,2-a]pyrimidin-9-yl)ethyl)amino)benzoic acid]: the values for the pIC50 in experiment [1], in experiment [2] and in experiment [4] were 7.79, 6.20 and under 5.00, respectively. For the same compound, in experiment [3], the IC50 came out at 847 nM.

Take `Cc1cc([C@@H](C)Nc2ccccc2C(=O)O)c2nc(N3CCCCC3)c(C(N)=O)c(=O)n2c1` [Example 10-70, (R)-2-((1-(3-carbamoyl-7-methyl-4-oxo-2-(piperidin-1-yl)-4H-pyrido[1,2-a]pyrimidin-9-yl)ethyl)amino)benzoic acid]: the pIC50 was under 5.00 in experiment [1], 5.33 in experiment [2] and under 5.00 in experiment [4]. Further, the half-maximal inhibitory concentration (IC50) in experiment [3] was over 10000 nM.

For `Cc1cc([C@@H](C)Nc2ccccc2C(=O)O)c2nc(N3CCCCC3)c(C(F)(F)F)c(=O)n2c1` [Example 10-71, (R)-2-((1-(7-methyl-4-oxo-2-(piperidin-1-yl)-3-(trifluoromethyl)-4H-pyrido[1,2-a]pyrimidin-9-yl)ethyl)amino)benzoic acid], the negative logarithm of the IC50 (pIC50) in experiment [1] was under 5.00; in experiment [2], 5.31; in experiment [4], under 5.00. Further, the concentration for half-maximal inhibition (IC50) in experiment [3] is over 10000 nM.

For `Cc1cc([C@@H](C)Nc2ccccc2C(=O)O)c2nc(N3CCCCC3)c(C)c(=O)n2c1` [Example 10-74, (R)-2-((1-(3,7-dimethyl-4-oxo-2-(piperidin-1-yl)-4H-pyrido[1,2-a]pyrimidin-9-yl)ethyl)amino)benzoic acid], the pIC50 is 8.49 in experiment [1], 6.92 in experiment [2] and under 5.00 in experiment [4]. Further, the concentration for half-maximal inhibition (IC50) in experiment [3] is 1460 nM.

Consider `Cc1cc([C@@H](C)Nc2ccccc2C(=O)O)c2nc(N3CCC(C)(C)CC3)c(C#N)c(=O)n2c1` [Example 10-72, (R)-2-((1-(3-cyano-2-(4,4-dimethylpiperidin-1-yl)-7-methyl-4-oxo-4H-pyrido[1,2-a]pyrimidin-9-yl)ethyl)amino)benzoic acid], for which the pIC50 in experiment [1] is 8.88; in experiment [2], 6.82; in experiment [4] it was under 5.00. In addition, the IC50 in experiment [3] stood at 2480 nM.

In the case of `Cc1cc([C@@H](C)Nc2ccccc2C(=O)O)c2nc(N3CC(F)(F)C3)c(C#N)c(=O)n2c1` [Example 10-27, (R)-2-((1-(3-cyano-2-(3,3-difluoroazetidin-1-yl)-7-methyl-4-oxo-4H-pyrido[1,2-a]pyrimidin-9-yl)ethyl)amino)benzoic acid], the pIC50 in experiment [1] is 8.68; in experiment [2] it was 7.28; in experiment [4], under 5.00. In addition, in experiment [3], the concentration for half-maximal inhibition (IC50) worked out at 780 nM.

Take `Cc1cc([C@@H](C)Nc2ccccc2C(=O)O)c2nc(N3CCCC3)c(C#N)c(=O)n2c1` [Example 10-73, (R)-2-((1-(3-cyano-7-methyl-4-oxo-2-(pyrrolidin-1-yl)-4H-pyrido[1,2-a]pyrimidin-9-yl)ethyl)amino)benzoic acid]: the pIC50 is 8.48 in experiment [1], 6.87 in experiment [2] and under 5.00 in experiment [4]. Further, the IC50 in experiment [3] worked out at 1030 nM.

Regarding `Cc1cc(C(C)Nc2ccccc2C(=O)O)c2nc(N3CCCCC3)cc(=O)n2c1` (stereo not shown) [Example 2, 2-((1-(7-methyl-4-oxo-2-(piperidin-1-yl)-4H-pyrido[1,2-a]pyrimidin-9-yl)ethyl)amino) benzoic acid], the IC50 in experiment [1] (read-out: T47D pAKT (H1047R mutant) IC50 (nM)) is 14 nM; in experiment [2] (read-out: T47D (H1047R mutant) Viability IC50 (nM)), 2970 nM; in experiment [3] it was over 10000 nM; in experiment [4] (read-out: SKBR3 (WT) Viability IC50 (nM)) it was over 10000 nM.

Regarding `Cc1cc([C@@H](C)Nc2ccccc2C(=O)O)c2nc(N3CCCCC3)c(C#N)c(=O)n2c1` [Example 10-99, (R)-2-((1-(3-cyano-7-methyl-4-oxo-2-(piperidin-1-yl)-4H-pyrido[1,2-a]pyrimidin-9-yl)ethyl)amino)benzoic acid], the negative logarithm of the IC50 (pIC50) was 9.01 in experiment [1], 7.06 in experiment [2] and 5.00 in experiment [4]. Moreover, the IC50 in experiment [3] came to 2260 nM.

Regarding `Cc1ccc(-c2cc(=O)n3cc(C)cc(C(C)Nc4ccccc4C(=O)O)c3n2)cc1` (stereo not shown) [7-2, 2-((1-(7-methyl-4-oxo-2-(p-tolyl)-4H-pyrido[1,2-a]pyrimidin-9-yl)ethyl)amino)benzoic acid], the figures for the negative-log IC50 (pIC50) in experiment [1], in experiment [2] and in experiment [4] were under 4.00, under 5.00 and under 5.00, respectively. In addition, the 50% inhibitory concentration (IC50) in experiment [3] was over 10000 nM.

Regarding `Cc1cc([C@@H](C)Nc2ccccc2C(=O)O)c2nc(N3CCC(F)(F)CC3)c(C#N)c(=O)n2c1` [Example 10-23, (R)-2-((1-(3-cyano-2-(4,4-difluoropiperidin-1-yl)-7-methyl-4-oxo-4H-pyrido[1,2-a]pyrimidin-9-yl)ethyl)amino)benzoic acid], the pIC50 is 8.87 in experiment [1], 7.32 in experiment [2] and 5.05 in experiment [4]. For the same compound, the concentration for half-maximal inhibition (IC50) in experiment [3] was determined as 1200 nM.

For `Cc1cc([C@@H](C)Nc2ccccc2C(=O)O)c2nc(N3CC4CC(C3)C4(F)F)c(C#N)c(=O)n2c1` [Example 10-69, 2-(((1R)-1-(3-cyano-2-(6,6-difluoro-3-azabicyclo[3.1.1]heptan-3-yl)-7-methyl-4-oxo-4H-pyrido[1,2-a]pyrimidin-9-yl)ethyl)amino)benzoic acid], the pIC50 was 8.43 in experiment [1], 6.78 in experiment [2] and under 5.00 in experiment [4]. Moreover, the 50% inhibitory concentration (IC50) in experiment [3] came to 1800 nM.

Turning to `Cc1cc([C@@H](C)Nc2cccc(F)c2C(=O)O)c2nc(N3CCC(F)(F)CC3)c(C#N)c(=O)n2c1` [Example 10-62, (R)-2-((1-(3-cyano-2-(4,4-difluoropiperidin-1-yl)-7-methyl-4-oxo-4H-pyrido[1,2-a]pyrimidin-9-yl)ethyl)amino)-6-fluorobenzoic acid], the negative-log IC50 (pIC50) in experiment [1] is 8.31; in experiment [2] it was 6.25; in experiment [4] it was under 5.00. The IC50 in experiment [3] was found to be 8650 nM.

Consider `Cc1cc([C@@H](C)Nc2ccccc2C(=O)O)c2nc(N3CCS(=O)(=O)CC3)c(C#N)c(=O)n2c1` [Example 10-68, (R)-2-((1-(3-cyano-2-(1,1-dioxidothiomorpholino)-7-methyl-4-oxo-4H-pyrido[1,2-a]pyrimidin-9-yl)ethyl)amino)benzoic acid], for which the negative-log IC50 (pIC50) was 6.43 in experiment [1], under 5.00 in experiment [2] and under 5.00 in experiment [4]. Also, the 50% inhibitory concentration (IC50) in experiment [3] is over 10000 nM.

The record behind these values is patent US20260078120A1, “SUBSTITUTED PYRIDOPYRIMIDINONES” (MIRATI THERAPEUTICS, INC., priority 2022, published 2026).
